{"source": "patent US10335372B2", "about": "“Compositions with modified nucleases targeted to viral nucleic acids and methods of use for prevention and treatment of viral diseases” (priority 2004, dated 2019)", "molecules": {"B1": {"name": "RNase A: bovine RNase A (Examples 21, 23, 24, 28, 37, 40) (protein, UniProt P61823 27-150, looked up)", "Ribonuclease pancreatic": "KETAAAKFERQHMDSSTSAASSSNYCNQMMKSRNLTKDRCKPVNTFVHESLADVQAVCSQKNVACKNGQTNCYQSYSTMSITDCRETGSSKYPNCAYKTTQANKHIIVACEGNPYVPVHFDASV"}, "B2": {"name": "pegylated RNase I: wild-type recombinant human RNase I reacted with mPEG-SS (conjugate, UniProt P07998 29-156, looked up)", "Ribonuclease pancreatic": "KESRAKKFQRQHMDSDSSPSSSSTYCNQMMRRRNMTQGRCKPVNTFVHEPLVDVQNVCFQEKVTCKNGQGNCYKSNSSMHITDCRLTNGSRYPNCAYRTSPKERHIIVACEGSPYVPVHFDASVEDST", "modifications": "mPEG-SS"}}, "key": {"[1]": {"test_system": "HepG2 intact cells", "assay": "Cellular uptake of rhodamine-labeled DNase complexes, fluorimeter", "format": "cell-based, human", "conditions": "30 min incubation", "procedure": "(§1) The cellular uptake of bovine DNase I (DNase), DNase-PEG and DNase-PEG-R8 complex is evaluated using the HepG2 cell line (human hepatocarcinoma cells ATCC, No-HB-8065). […] DNase I is labeled with fluorescent rodamine (*) according to the manufacturer's instruction (Pierce, Inc., Rockford, Ill.). Penetration of *DNase-PEG-K-R8 into HepG2 cells is compared to that of *DNase and *DNase-PEG after 30 min of incubation with HepG2 cells in DMEM at 37° C.\n(§2) To maintain the cells the growth medium 199 is used."}, "[2]": {"test_system": "HepG2 VV-infected cells", "format": "cell-based, human", "conditions": "30 min incubation", "procedure": "as §1, §2"}, "[3]": {"assay": "Cellular uptake of fluorescamine-labeled RNase I variants", "format": "cell-based", "conditions": "fluorescamine label"}, "[4]": {"test_system": "ssRNA corona virus", "assay": "Antiviral activity of labeled RNase I variants against ssRNA corona virus", "format": "cell-based"}, "[5]": {"test_system": "Vaccinia virus", "format": "cell-based", "conditions": "500 KuU/ml, 48 h at 37° C."}, "[6]": {"test_system": "Herpes simplex virus, type I (HSV-1)", "assay": "Anti-HSV-1 activity in HEP-2 cells", "format": "cell-based", "conditions": "for HSV Titer: single values"}, "[7]": {"test_system": "mouse leukemia virus", "assay": "Treatment of viral lymphatic leukemia in 9-10 month old AKR mice", "format": "in vivo", "conditions": "5 kUA/g s.c. every four days", "procedure": "To study the treatment effect of DNase and TDNase, the experiment is carried out on 9-10 month old AKR mice with manifestations of lymphoid leukemia. A significant increase in the size of lymph nodes, thymus, liver and spleen and high mitotic index in lymphoid tissues is observed in these animals. The treated groups include 24 mice in each while the control group includes 19 mice. Administration of DNase I and TDNase every four days s.c., in a dose of 5,000 KuU/g body weight, results in a decrease of lymphatic tissues and mitotic index to normal levels, and in an increase in longevity of animals. However, a more profound effect is obtained in animals receiving TDNase than DNase, and receiving TDNase-PEG than TDNase, as is shown in Table 25."}, "[8]": {"test_system": "mouse leukemia virus", "assay": "Prevention of leukemia development in AKR mice", "format": "in vivo", "conditions": "5,000 KuU/g s.c. every second day for a month", "text": "Leukemia in AKR mice is known to be promoted by mouse leukemia virus. The lymphoid tissues of AKR mice contain mouse leukemia virus, and spontaneously develop leukemia, at the age of 6-8 months."}, "[9]": {"test_system": "cytomegalovirus (CMV)", "assay": "Anti-CMV activity in HEP-2 cells", "conditions": "for CMV Titer: single values"}, "[10]": {"test_system": "cytomegalovirus", "assay": "Antiviral activity of modified DNase I against cytomegalovirus in cell culture", "conditions": "500 UA/ml, 48 h at 37° C."}, "[11]": {"test_system": "dsDNA", "conditions": "physiological monovalent cation strength; cited from earlier work"}, "[12]": {"molecular_target": "S-protein (Bos taurus, UniProt P61823)", "conditions": "N-terminal residues 1-15; cited from earlier work"}, "[13]": {"test_system": "Influenza virus A/Aichi/2/68/H3N2", "format": "in vivo", "conditions": "mice, single values"}, "[14]": {"test_system": "FMD virus", "format": "cell-based"}, "[15]": {"test_system": "dsRNA reovirus", "assay": "Combination of human RNase I and human RNase III against reovirus in HEP-2 cells", "format": "cell-based", "conditions": "200 UA/ml", "procedure": "The reovirus stock preparation used in this example has a titer of 5.5 log CPD50/0.1 ml."}, "[16]": {"test_system": "FMDV of O-type", "conditions": "guinea pig, in vivo"}, "[17]": {"test_system": "double-stranded RNA", "conditions": "physiological salt conditions; double-stranded RNA substrate; cited from earlier work"}, "[18]": {"test_system": "West Nile virus", "assay": "Antiviral effect of modified RNase I against West Nile virus in newborn rabbit kidney cells", "conditions": "average of four replicate determinations"}, "[19]": {"test_system": "honeybee paralysis virus", "format": "in vivo, honeybees", "conditions": "of 100 infected", "procedure": "Infectious titer of HBVP is […] per ml. The honeybees are infected by feeding the viral emulsion. Insects are sprayed by an aerosol of enzyme diluted in physiological solution 3 hours before the inoculation of virus. […] Treatment of insects 6 hours after inoculation of virus still protected them from development of disease."}, "[20]": {"test_system": "ssRNA equine encephalitis virus", "format": "cell-based", "conditions": "500 UA/ml"}, "[21]": {"test_system": "ssRNA coronavirus", "assay": "RNase A on virus replication in HEP-2 cells", "conditions": "200 UA/ml"}, "[22]": {"test_system": "dsRNA reovirus", "assay": "RNase A on virus replication in HEP-2 cells", "conditions": "200 UA/ml"}, "[23]": {"test_system": "ssRNA corona virus", "assay": "Antiviral efficacy of pegylated human RNase I"}}, "note": "Where “and” joins values, the source holds several entries; their conditions need not be identical. Equal values may be shown once. Read-outs that look alike come from different tables or passages of the source."}
{"molecule": "*DNase", "values": [{"measurement": "OD (430 nm), cellular uptake", "setting": "[1]", "result": 37}, {"measurement": "OD (430 nm), cellular uptake", "setting": "[2]", "result": 48}]}
{"molecule": "*RNase I: fluorescamine-labeled human RNase I", "values": [{"measurement": "Cellular Uptake [OD430 nm]", "setting": "[3]", "result": 110}, {"measurement": "Average Titer", "setting": "[4]", "result": 5.4}]}
{"molecule": "DNase", "values": [{"measurement": "Average log TCD50", "setting": "[5]", "result": 4.7, "unit": "log TCD50"}, {"measurement": "log TCD50", "setting": "[5]; single values", "result": "4.6 log TCD50 and 4.8 log TCD50"}, {"measurement": "Average Titer", "setting": "[6]; 10 UA/ml", "result": 5.4, "unit": "logTCD50/ml"}, {"measurement": "HSV Titer", "setting": "[6]; 10 UA/ml", "result": "5.4 logTCD50/ml and 5.5 logTCD50/ml and 5.3 logTCD50/ml"}, {"measurement": "Average Titer", "setting": "[6]; 50 UA/ml", "result": 5.1, "unit": "logTCD50/ml"}, {"measurement": "HSV Titer", "setting": "[6]; 50 UA/ml", "result": "5.1 logTCD50/ml and 5.0 logTCD50/ml"}, {"measurement": "Average Titer", "setting": "[6]; 100 UA/ml", "result": 4.5, "unit": "logTCD50/ml"}, {"measurement": "HSV Titer", "setting": "[6]; 100 UA/ml", "result": "4.6 logTCD50/ml and 4.5 logTCD50/ml and 4.7 logTCD50/ml"}, {"measurement": "Average Titer", "setting": "[6]; 500 UA/ml", "result": 3.8, "unit": "logTCD50/ml"}, {"measurement": "HSV Titer", "setting": "[6]; 500 UA/ml", "result": "3.8 logTCD50/ml and 3.9 logTCD50/ml and 3.7 logTCD50/ml"}, {"measurement": "Liver", "setting": "[7]", "result": "941 ± 33", "unit": "g"}, {"measurement": "Longevity (weeks)", "setting": "[7]", "result": "16 ± 1.0", "unit": "weeks"}, {"measurement": "Mitotic Index", "setting": "[7]", "result": "0.18 ± 0.02"}, {"measurement": "development of leukemia", "setting": "[8]", "result": "preclude the development of leukemia"}, {"measurement": "Average Titer", "setting": "[9]; 50 UA/ml", "result": 5.1, "unit": "logTCD50/ml"}, {"measurement": "CMV Titer", "setting": "[9]; 50 UA/ml", "result": "5.1 logTCD50/ml and 5.0 logTCD50/ml"}, {"measurement": "Average Titer", "setting": "[9]; 100 UA/ml", "result": 4.5, "unit": "logTCD50/ml"}, {"measurement": "CMV Titer", "setting": "[9]; 100 UA/ml", "result": "4.6 logTCD50/ml and 4.5 logTCD50/ml and 4.7 logTCD50/ml"}, {"measurement": "Average Titer", "setting": "[9]; 500 UA/ml", "result": 3.8, "unit": "logTCD50/ml"}, {"measurement": "CMV Titer", "setting": "[9]; 500 UA/ml", "result": "3.8 logTCD50/ml and 3.9 logTCD50/ml and 3.7 logTCD50/ml"}, {"measurement": "Average Titer", "setting": "[9]; [0] UA/ml", "result": 5.5, "unit": "logTCD50/ml"}, {"measurement": "CMV Titer", "setting": "[9]; [0] UA/ml", "result": "5.4 logTCD50/ml and 5.6 logTCD50/ml and 5.5 logTCD50/ml"}, {"measurement": "Average Titer", "setting": "[10]", "result": 6.5, "unit": "logTCD50/0.1 ml"}, {"measurement": "Virus Titer", "setting": "[10]; single values", "result": "6.3 logTCD50/0.1 ml and 6.4 logTCD50/0.1 ml and 6.5 logTCD50/0.1 ml"}]}
{"molecule": "EndoG: sugar-nonspecific 29 kDa human endonuclease", "values": [{"measurement": "inhibition", "setting": "[11]", "result": "about 15 fold"}]}
{"molecule": "KETAAAKFERQHMDS [bovine S-peptide]", "values": [{"measurement": "Kd", "setting": "[12]", "result": "< 1", "unit": "nM"}]}
{"molecule": "RNase: recombinant / wild-type human RNase I (Examples 22, 30, 31)", "values": [{"measurement": "Titer in lungs", "setting": "[13]; treatment i.n.", "result": "4.5 log TCD50 and 4.0 log TCD50 and 4.3 log TCD50"}, {"measurement": "Titer in lungs", "setting": "[13]; treatment i.p.", "result": "4.7 log TCD50 and 5.0 log TCD50 and 4.5 log TCD50"}, {"measurement": "Titer", "setting": "[14]", "result": "7.3; 7.1; 6.8 logTCD50/ml"}, {"measurement": "Average Titer", "setting": "[15]", "result": 4.0, "unit": "logTCD50/0.1 ml"}, {"measurement": "Titer", "setting": "[15]; single values", "result": "3.9 logTCD50/0.1 ml and 4.0 logTCD50/0.1 ml and 4.1 logTCD50/0.1 ml"}, {"measurement": "Survived", "setting": "[16]", "result": 40}, {"measurement": "duration of preventive effect after a single injection", "setting": "[16]", "result": "at least 4 hours"}, {"measurement": "animals that developed FMD", "setting": "[16]; sc", "result": 8}, {"measurement": "Survived", "setting": "[16]; record 2", "result": 32}, {"measurement": "enzymatic activity relative to RNase A", "setting": "[17]", "result": "about 500 times"}, {"measurement": "logTCD50/ml", "setting": "[18]; 100 UA/ml", "result": 7.7, "unit": "logTCD50/ml"}, {"measurement": "logTCD50/ml", "setting": "[18]; 250 UA/ml", "result": 7.0, "unit": "logTCD50/ml"}]}
{"molecule": "B1", "values": [{"measurement": "Surviving Honeybees", "setting": "[19]; 200 UA/ml", "result": 4}, {"measurement": "Surviving Honeybees", "setting": "[19]; 500 UA/ml", "result": 11}, {"measurement": "Surviving Honeybees", "setting": "[19]; 1000 UA/ml", "result": 67}, {"measurement": "Surviving Honeybees", "setting": "[19]; 1500 UA/ml", "result": 100}, {"measurement": "Average Titer", "setting": "[20]", "result": 5.26, "unit": "logTCD50/0.1 ml"}, {"measurement": "Titer", "setting": "[20]; single values", "result": "5.2 logTCD50/0.1 ml and 5.4 logTCD50/0.1 ml"}, {"measurement": "Average Titer", "setting": "[21]", "result": 1.5, "unit": "logTCD50/0.1 ml"}, {"measurement": "Titer", "setting": "[21]; single values", "result": "1.4 logTCD50/0.1 ml and 1.6 logTCD50/0.1 ml and 1.5 logTCD50/0.1 ml"}, {"measurement": "Average Titer", "setting": "[22]", "result": 4.0, "unit": "logTCD50/0.1 ml"}, {"measurement": "Titer", "setting": "[22]; single values", "result": "4.0 logTCD50/0.1 ml and 4.1 logTCD50/0.1 ml and 3.9 logTCD50/0.1 ml"}]}
{"molecule": "B2", "values": [{"measurement": "antiviral efficacy compared with unpegylated enzyme", "setting": "[23]", "result": "enhances its antiviral efficacy"}]}
